Experiment: Interfacial tension of the lipid against water (measure of polarity)
Type: physicochemical
Details: lower value = more polar oil
From the text: Öle und Fette unterscheiden sich unter anderem in ihrer Polarität, welche schwierig zu definieren ist. Es wurde bereits vorgeschlagen, die Grenzflächenspannung gegenüber Wasser als Maß für den Polaritätsindex eines Öls bzw. einer Ölphase anzunehmen. Dabei gilt, daß die Polarität der betreffenden Ölphase umso größer ist, je niedriger die Grenzflächenspannung zwischen dieser Ölphase und Wasser ist. Erfindungsgemäß wird die Grenzflächenspannung als ein mögliches Maß für die Polarität einer gegebenen Ölkomponente angesehen.
Die Grenzflächenspannung ist diejenige Kraft, die an einer gedachten, in der Grenzfläche zwischen zwei Phasen befindlichen Linie der Länge von einem Meter wirkt. Die physikalische Einheit für diese Grenzflächenspannung errechnet sich klassisch nach der Beziehung Kraft/Länge und wird gewöhnlich in mN/m (Millinewton geteilt durch Meter) wiedergegeben. Sie hat positives Vorzeichen, wenn sie das Bestreben hat, die Grenzfläche zu verkleinern. Im umgekehrten Falle hat sie negatives Vorzeichen.
Die nachfolgende Tabelle 1 führt mittelpolare Lipide auf, die die erfindungsgemäß sind. Die betreffenden Grenzflächenspannungen gegen Wasser sind in der letzten Spalte angegeben. Es ist jedoch auch vorteilhaft, Gemische aus höher- und niederpolaren und dergleichen zu verwenden, sofern gewährleistet ist, daß die Gesamtpolarität der Ölphase im beanspruchten Bereich liegt. Tabelle 1

For `CCCCCCCCCCCCCCCCCC(=O)OCCCCCCCC` [Cetiol® 868, Octyl Stearate], which “Grenzflächenspannungen gegen Wasser” value is on record?
The value was 28,4 mN/m.

For `CCCCCCCCCCC(CO)CCCCCCCC` (centres unmarked) [Eutanol® G, Octyldodecanol], which “Grenzflächenspannungen gegen Wasser” value is on record?
The value was 24,8 mN/m.

For `CCCCCCCCC(CO)CCCCCC` (centres unmarked) [Isofol® 16, Hexyl Decanol], which “Grenzflächenspannungen gegen Wasser” value is on record?
The value was 24,3 mN/m.

For `CCCCCCCCCCCCCCCCCC(=O)OC(C)C` [Isopropylstearat, Isopropyl Stearate], which “Grenzflächenspannungen gegen Wasser” value is on record?
Its value is 21,9 mN/m.

Which “Grenzflächenspannungen gegen Wasser” value does the source give for `CCCCCCCCCCCCCC(=O)OCC(CCCCCCCC)CCCCCCCCCC` (centres unmarked) [MOD, Octyldodeceyl Myristate] here?
Its value is 22,1 mN/m.

Which “Grenzflächenspannungen gegen Wasser” value does the source give for `CCCCCCCCCCCCCCCCCCOC(=O)CCCCCC` [Tegosoft® SH, Stearyl Heptanoate] here?
The value was 28,7 mN/m.

For `CCCCCCCC(=O)OCC(COC(=O)CCCCCCC)OC(=O)CCCCCCC` [Trivent® OCG, Tricaprylin], which “Grenzflächenspannungen gegen Wasser” value is on record?
Its value is 20,2 mN/m.

For Octyl lsostearate [Prisorine® 2036], which “Grenzflächenspannungen gegen Wasser” value is on record?
Its value is 29,7 mN/m.
